In ChEMBL document CHEMBL6092203, “Discovery of Novel PROTAC-Based HPK1 Degraders with High Potency and Selectivity for Cancer Immunotherapy” (J Med Chem, 2024):
Active and inactive are the calls of the source. The calls are words filed in the database; no cut-off is given here.

Legend:
MC-38 [1] = assay: Synergistic antitumor activity against mouse MC38 cells implanted in C57BL/6J mouse assessed as reduction in tumor weight at 0.1 mg/kg, po bid administered for 3 to 4 weeks in presence of 5 mg/kg anti-PD1 and measured twice a week (reference value: 1.79 +/- 0.24 g); assay type: functional; conditions: time 3-4 weeks
in vivo [2] = conditions: male, Sprague-Dawley, rat, po, 100 mg/kg
[3] = Metabolic stability in mouse liver microsomes assessed as intrinsic clearance at 1 uM incubated for 45 mins by LC-MS/MS method; assay type: ADME, Microsome; conditions: read-out: CLH
[4] = Drug metabolism in dog hepatocytes assessed as phase 1 metabolites formation at 10 uM incubated for 120 mins by UHPLC-UV/MS/MS method; assay type: ADME, cell-based, Canis lupus familiaris, Hepatocyte; conditions: 2 h
[5] = target: T1, Protein cereblon/Mitogen-activated protein kinase kinase kinase kinase 1 (Homo sapiens, UniProt Q92918+Q96SW2); assay: PROTAC activity at CRBN/HPK1 in human Jurkat cells assessed as maximum degradation incubated for 24 hrs by Western blotting analysis; assay type: cell-based
MC-38 [6] = assay: Synergistic antitumor activity against mouse MC38 cells implanted in C57BL/6J mouse assessed as reduction in tumor volume at 0.5 mg/kg, po bid administered for 3 to 4 weeks in presence of 5 mg/kg anti-PD1 and measured twice a week (reference value: 1549.22 +/- 217.92 mm3); assay type: functional; conditions: time 3-4 weeks
in vitro [7] = conditions: human, hepatocytes
MC-38 [8] = assay: Synergistic antitumor activity against mouse MC38 cells implanted in C57BL/6J mouse assessed as tumor growth inhibition at 0.5 mg/kg, po bid measured after 4 weeks in presence of 5 mg/kg anti-PD1 and measured twice a week; assay type: functional; conditions: MC-38, 672 h, read-out: TGI
[9] = Tmax in female Sprague-Dawley rat at 2 mg/kg/day, po measured at day 1; assay type: ADME, organism-based; conditions: in vivo, time 1 day
[10] = Plasma protein binding in monkey at 10 uM incubated for 6 hrs by equilibrium dialysis based LC-MS/MS method; assay type: ADME, cell-free, Macaca mulatta; conditions: rhesus monkey, read-out: PPB (converted)
MC-38 [11] = assay: Synergistic antitumor activity against mouse MC38 cells implanted in C57BL/6J mouse assessed as reduction in tumor volume at 100 mg/kg, po QD administered for 3 to 4 weeks in presence of 5 mg/kg anti-PD1 and measured twice a week (reference value: 1549.22 +/- 217.92 mm3); assay type: functional; conditions: time 3-4 weeks
[12] = AUC(0 to 24 hrs) in male Sprague-Dawley rat at 30 mg/kg/day, po measured at day 1; assay type: ADME, organism-based; conditions: in vivo, time 1 day
MC-38 [13] = assay: Antitumor activity against mouse MC38 cells implanted in C57BL/6J mouse assessed as reduction in tumor volume at 1 mg/kg, po BID administered for 3 to 4 weeks (reference value: 1549.22 +/- 217.92 mm3); assay type: functional; conditions: time 3-4 weeks
[14] = Drug distribution in rat lymph node measured after 0.5 to 6 hrs; assay type: ADME, tissue-based; conditions: in vivo, time 0.5-6 hrs
[15] = AUCinfinity in Beagle dog at 1 mg/kg, iv measured upto 24 hrs by LC-MS analysis; assay type: ADME, organism-based, Canis lupus familiaris; conditions: in vivo
[16] = Effect on action potential in rabbit purkinje fibers; assay type: toxicity, tissue-based, Oryctolagus cuniculus, Purkinje fiber
[17] = Half-life in C57BL/6J mouse at 2 mg/kg, iv measured upto 24 hrs by LC-MS analysis; conditions: in vivo
in vivo [18] = conditions: Sprague-Dawley, rat, po, 1 mg/kg
in vivo [19] = conditions: male, Sprague-Dawley, rat, po, 30 mg/kg
[20] = Clearance in mouse at 2 mg/kg, iv measured upto 24 hrs by LC-MS analysis; assay type: ADME, organism-based; conditions: in vivo
[21] = Tmax in male Sprague-Dawley rat at 100 mg/kg/day, po measured at day 1; assay type: ADME, organism-based; conditions: in vivo, time 1 day
[22] = AUCinfinity in Sprague-Dawley rat at 2 mg/kg, iv measured upto 24 hrs by LC-MS analysis; assay type: ADME, organism-based; conditions: in vivo
in vitro [23] = conditions: dog, hepatocytes
in vivo [24] = conditions: female, Sprague-Dawley, rat, po, 2 mg/kg
in vivo [25] = conditions: male, Sprague-Dawley, rat, po, 30 mg/kg; remark: listed apart in the source
in vivo [26] = conditions: C57BL/6J, mouse, po, 10 mg/kg
MC-38 [27] = assay: Synergistic antitumor activity against mouse MC38 cells implanted in C57BL/6J mouse assessed as reduction in tumor volume at 0.1 mg/kg, po bid administered for 3 to 4 weeks in presence of 5 mg/kg anti-PD1 and measured twice a week (reference value: 1549.22 +/- 217.92 mm3); assay type: functional; conditions: time 3-4 weeks
[28] = Metabolic stability in rat hepatocytes assessed as intrinsic clearance at 1 uM incubated for 90 mins by LC-MS/MS method; assay type: ADME, cell-based, Hepatocyte; conditions: 1.5 h
in vivo [29] = conditions: female, Sprague-Dawley, rat, po, 2 mg/kg; remark: listed apart in the source
in vitro [30] = conditions: mouse, liver microsomes
[31] = target: T1, Protein cereblon/Mitogen-activated protein kinase kinase kinase kinase 1; assay: PROTAC activity at CRBN/HPK1 in human Jurkat cells assessed as HPK1 degradation at 1 uM measured after 24 hrs by Western blotting analysis; assay type: cell-based
in vitro [32] = conditions: dog, liver microsomes
MC-38 [33] = assay: Antitumor activity against mouse MC38 cells implanted in C57BL/6J mouse assessed as tumor weight inhibition rate at 0.5 mg/kg, po BID measured after 4 weeks; assay type: functional; set-up: scale not given: the % may be the effect or the level left
MC-38 [34] = assay: Antitumor activity against mouse MC38 cells implanted in C57BL/6J mouse assessed as tumor growth inhibition at 1 mg/kg, po BID measured after 4 weeks; assay type: functional; conditions: MC-38, 672 h, read-out: TGI
Jurkat = assay: Effect on p-SLP76 at Y145 residue protein expression in human Jurkat cells at 1 to 2000 nM incubated for 24 hrs by Western blotting analysis; assay type: functional, cell-based; conditions: dose 1-2000 nM
[35] = Toxicity in C57BL/6J mouse assessed as change in body weight at 100 mg/kg, po qd measured after 28 days in presence of 5 mg/kg anti-PD1; assay type: organism-based; conditions: in vivo, 672 h, time 28 day
[36] = Clearance in Beagle dog at 1 mg/kg, iv measured upto 24 hrs by LC-MS analysis; conditions: in vivo
[37] = Drug absorption in rat at 10 to 100 mg/kg, po; assay type: ADME, organism-based; conditions: in vivo, dose 10-100 mg/kg
MC-38 [38] = assay: Antitumor activity against mouse MC38 cells implanted in C57BL/6J mouse assessed as tumor growth inhibition at 0.5 mg/kg, IG BID administered for 3 to 4 weeks; assay type: functional, organism-based; conditions: time 3-4 weeks
[39] = Drug distribution in rat brain measured after 2 hrs; assay type: ADME, tissue-based; conditions: in vivo
[40] = Induction of IL-2 secretion in human PBMCs incubated for 24 hrs by ELISA; assay type: functional, cell-based, PBMC
[41] = target: T1, Protein cereblon/Mitogen-activated protein kinase kinase kinase kinase 1; assay: PROTAC activity at CRBN/HPK1 in human Jurkat cells assessed as HPK1 degradation measured after 24 hrs by Western blotting analysis; assay type: cell-based; conditions: dose 1-2000 nM

T1 sequence (Q92918 whole entry, looked up): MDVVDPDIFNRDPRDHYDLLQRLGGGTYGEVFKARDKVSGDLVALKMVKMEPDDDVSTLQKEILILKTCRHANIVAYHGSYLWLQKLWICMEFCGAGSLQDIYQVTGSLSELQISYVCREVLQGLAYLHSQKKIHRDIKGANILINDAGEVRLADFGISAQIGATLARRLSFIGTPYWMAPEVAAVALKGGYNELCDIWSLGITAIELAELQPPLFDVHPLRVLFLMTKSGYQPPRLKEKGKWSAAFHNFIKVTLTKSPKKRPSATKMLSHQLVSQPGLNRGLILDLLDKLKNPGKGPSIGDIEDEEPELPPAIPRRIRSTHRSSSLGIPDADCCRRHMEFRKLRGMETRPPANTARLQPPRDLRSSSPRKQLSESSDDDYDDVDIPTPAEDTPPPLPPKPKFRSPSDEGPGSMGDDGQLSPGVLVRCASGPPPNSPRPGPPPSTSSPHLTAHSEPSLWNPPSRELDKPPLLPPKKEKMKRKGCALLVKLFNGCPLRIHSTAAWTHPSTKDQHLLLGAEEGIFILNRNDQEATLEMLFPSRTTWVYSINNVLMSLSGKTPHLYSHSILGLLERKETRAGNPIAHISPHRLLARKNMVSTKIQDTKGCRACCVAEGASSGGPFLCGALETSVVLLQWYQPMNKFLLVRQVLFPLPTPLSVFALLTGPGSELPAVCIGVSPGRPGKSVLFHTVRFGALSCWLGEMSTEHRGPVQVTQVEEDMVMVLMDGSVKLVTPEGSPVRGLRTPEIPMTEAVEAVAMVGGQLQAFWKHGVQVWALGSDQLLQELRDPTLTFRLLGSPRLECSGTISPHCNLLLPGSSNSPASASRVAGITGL
T1 sequence (Q96SW2 whole entry, looked up): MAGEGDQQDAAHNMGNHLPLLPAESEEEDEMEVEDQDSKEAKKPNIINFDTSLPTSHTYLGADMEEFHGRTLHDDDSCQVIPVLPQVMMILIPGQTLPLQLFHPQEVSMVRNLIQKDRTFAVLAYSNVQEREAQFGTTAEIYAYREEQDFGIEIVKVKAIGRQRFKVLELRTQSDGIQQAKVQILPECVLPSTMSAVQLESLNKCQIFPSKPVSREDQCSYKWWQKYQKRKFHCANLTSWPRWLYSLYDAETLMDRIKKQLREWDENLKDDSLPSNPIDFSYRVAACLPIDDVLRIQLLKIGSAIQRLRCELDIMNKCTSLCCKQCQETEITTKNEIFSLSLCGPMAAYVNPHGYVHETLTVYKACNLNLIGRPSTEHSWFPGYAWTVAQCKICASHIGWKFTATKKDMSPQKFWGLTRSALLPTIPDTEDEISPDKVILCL

Cmax at 24 h (in vivo [2]): 8620 ng/mL
microsomal CLint at 1 µM [3]: 13.4 µL/min/mg
Drug metabolism [4]: metabolite_detected
Emax [5]: 94%
half-life at 1.5 h, 1 µM (in vitro [7]): 6.02 h
Tmax [9]: 6 h
fraction unbound at 6 h, 10 µM [10]: 0.0002
AUC(0-t) at 24 h [12]: 38200 ng·h/mL
Drug uptake [14]: Active
AUC(0-inf) [15]: 996 ng·h/mL
half-life at 24 h [17]: 1.17 h
Cmax at 24 h (in vivo [18]): 98.7 ng/mL
AUC at 336 h (in vivo [19]): 38200 ng·h/mL
clearance [20]: 0.598 mL/min/kg
Tmax [21]: 7.5 h
AUC(0-inf) [22]: 8220 ng·h/mL
half-life at 1.5 h, 1 µM (in vitro [23]): 3.47 h
Cmax at 24 h (in vivo [24]): 63.9 ng/mL
Cmax at 336 h (in vivo [25]): 3200 ng/mL
bioavailability at 24 h (in vivo [26]): 43.7%
CLH [28]: 2.97 µL/min/mg
Cmax at 336 h (in vivo [29]): 140 ng/mL
half-life at 0.75 h, 1 µM (in vitro [30]): 1.73 h
Activity [31]: Active
half-life at 0.75 h, 1 µM (in vitro [32]): 1.14 h
clearance at 24 h [36]: 17 mL/min/kg
Drug absorption [37]: Active
Drug uptake [39]: Active
Activity [41]: Dose-dependent-effect
Compound: O=C1CCN(c2cc(C(=O)N3CCC(CC4CCN(c5ccc(-c6cnc7[nH]cc(-c8cnn(CC(F)(F)F)c8)c7n6)cn5)CC4)CC3)ccc2Cl)C(=O)N1
Activity (MC-38 [1]): 1.17 g
Activity (MC-38 [6]): 139.36 mm3
inhibition in vivo at 0.5 mg/kg (MC-38 [8]): 91%
Activity (MC-38 [11]): 139.92 mm3
Activity (MC-38 [13]): 1277.79 mm3
Activity [16]: Non-toxic
Activity (MC-38 [27]): 934.84 mm3
Activity (MC-38 [33]): 42.22%
inhibition in vivo at 1 mg/kg (MC-38 [34]): 17.5%
Activity (Jurkat): inactive
Activity [35]: Non-toxic
Activity (MC-38 [38]): Active; Comparable To 100 Mg/Kg Dd203-1 Treatement Group
Emax [40]: 1151.57 pg/mL
